Reference: publication PMC7265341, “Quantifying CDK inhibitor selectivity in live cells” (Nature Communications, 2020)
Several values for one entry are separate records, joined by “and”; a condition that tells them apart may be missing. Identical values can stand only once.

Key:
Type in all cases: binding
[1] = target: T1, CDK7 (Homo sapiens, UniProt P50613); assay: Intracellular residence time by cellular washout, CDK7; conditions: for CDK7: Panel B
Experimental: However, residence times for this and many of the other CDKi’s in our panel have not been reported in cell-free or cellular contexts. […] This condition was selected to ensure adequate target occupancy prior to compound washout. Residence time was then evaluated by a rapid compound washout procedure, followed by addition of energy transfer probe 1. Under these conditions, the rate of the energy transfer signal increase serves as a direct proxy for the loss of the target-CDKi interaction[18],[56],[57].
Residence time was qualitatively assessed via a cellular washout approach, where delayed energy probe association is used as an indirect measurement for the durability of target/compound engagement. […] After 2 h of incubation at 37 °C, the medium was aspirated from the cells and replaced with fresh OptiMEM containing NanoBRET NanoGlo Substrate and Extracellular NanoLuc Inhibitor. […] Occupancy values were plotted as a function of time.
Supplementary Figure 22. […] Residence […]
time was qualitatively assessed by cellular washout as described in the method details and compared to association of energy transfer probe in cells treated with DMSO vehicle. […]
engagement at CDK6 and kinetic selectivity for CDK6 compared to CDK2 and CDK7. BRET ratios were normalized between the maximum BRET value vs BRET value in the absence of tracer. Kinetic traces and individual points are mean of 3 independent experiments ± S.E.M (n = 3). Source data are provided as a […]

[2] = target: CDK2 (Homo sapiens, UniProt P24941); assay: Intracellular residence time by cellular washout, CDK2; conditions: for CDK2 occupancy after compound washout (%): Panel B;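 as to all read-outs here: NanoBRET live-cell washout assay after 2 h compound pretreatment at 37 °C, rising energy-transfer probe signal tracks loss of CDK2 engagement, compared against DMSO vehicle cells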
[3] = target: T1, CDK7; assay: Real-time analysis of engagement (kobs, IC50 vs time) in live cells, CDK7
Experimental: Cells were pre-equilibrated with energy transfer probe for 40 min prior to addition of […]
intervals at 25 °C (temperature reduced to avoid evaporation of cell culture medium). To quantify […]
vs time. Apparent association rate was also plotted as k obs vs [RGB286638], where kobs was determined using the one phase association equation (Supplementary Equation 2) in graphpad prism.
Y=Y0 + (Plateau-Y0)*(1-e-K*X) (2) where Y = mBRET ratio, X = time, and K = the observed rate constant ( kobs). […]
CDK7 (left) and CDK6 (right) to generate kobs. Kinetic traces were collected in a single biological experiment (n = 1), where individual data points represent the mean ± S.D of technical triplicates (n = 3).
(B) kobs values (n = 1) were generated from panel A by fitting Supplementary Equation 2, and were then […]
collected at each timepoint represent technical singlicates (n = 1 ). Source data are provided as a Source

[4] = Time (Min) 32.9743, listed as RGB-286638
[5] = LOG10([THZ1]) (LOG10(µM)) 0.346787
[6] = LOG10([THZ1]) (LOG10(µM)) 0.823909
[7] = LOG10([THZ1]) (LOG10(µM)) 1.30103, Replicates 1 and 2
[8] = LOG10([THZ1]) (LOG10(µM)) -0.60746
[9] = LOG10([THZ1]) (LOG10(µM)) -1.08458
[10] = LOG10([THZ1]) (LOG10(µM)) -1.5617
[11] = LOG10([THZ1]) (LOG10(µM)) -2.03882
[12] = LOG10([THZ1]) (LOG10(µM)) -2.51594
[13] = LOG10([THZ1]) (LOG10(µM)) -2.99306
[14] = LOG10([THZ1]) (LOG10(µM)) -3.47018
[15] = LOG10([THZ1]) (LOG10(µM)) -3.9473

T1 sequence (P50613 whole entry): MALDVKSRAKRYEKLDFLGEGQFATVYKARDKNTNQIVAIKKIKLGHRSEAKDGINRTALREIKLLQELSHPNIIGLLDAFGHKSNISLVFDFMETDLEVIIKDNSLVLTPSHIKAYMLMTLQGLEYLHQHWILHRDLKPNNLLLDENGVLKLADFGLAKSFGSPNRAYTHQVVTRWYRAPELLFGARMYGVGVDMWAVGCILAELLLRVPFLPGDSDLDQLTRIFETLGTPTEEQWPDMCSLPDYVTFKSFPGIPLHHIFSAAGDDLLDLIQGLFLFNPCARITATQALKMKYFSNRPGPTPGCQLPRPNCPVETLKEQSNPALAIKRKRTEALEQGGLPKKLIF

COCCN1CCN(Cc2ccc(-c3n[nH]c4c3C(=O)c3c(NC(=O)NN5CCOCC5)cccc3-4)cc2)CC1 [RGB286638]
CDK7 ([1]; Time (Min) 2.97013): 63.5317 and 37.2109 and 59.6726
CDK7 ([1]; Time (Min) 5.97045): 70.1207 and 47.8912 and 70.0893
CDK7 ([1]; Time (Min) 8.97078): 76.2242 and 55.3742 and 82.1429
CDK7 ([1]; Time (Min) 11.9714): 80.0388 and 60.068 and 80.8036
CDK7 ([1]; Time (Min) 14.9718): 83.1599 and 63.8775 and 88.244
CDK7 ([1]; Time (Min) 17.9723): 84.339 and 67.0068 and 93.006
CDK7 ([1]; Time (Min) 20.9723): 86.0036 and 69.5238 and 91.8155
CDK7 ([1]; Time (Min) 23.9731): 87.5988 and 70.4762 and 91.0714
CDK7 ([1]; Time (Min) 26.9737): 87.252 and 72.2449 and 92.2619
CDK7 ([1]; Time (Min) 29.9742): 89.6796 and 72.7211 and 93.4524
CDK7 ([1]; Time (Min) 32.9743): 74.1497
CDK7 [1, 4]: 87.9456 and 99.1071
CDK7 ([1]; Time (Min) 35.9749): 89.8183 and 75.5102 and 100.298
CDK7 ([1]; Time (Min) 38.9753): 90.3731 and 75.102 and 97.619
CDK7 ([1]; Time (Min) 41.9753): 91.4829
CDK7 ([1]; Time (Min) 236.996): 85.5181 and 68.5714 and 62.6488
CDK7 ([1]; Time (Min) 239.996): 81.0792 and 69.4558 and 75.1488
CDK7 ([1]; Time (Min) 242.996): 82.6744 and 69.7959 and 76.3393
CDK7 ([1]; Time (Min) 245.996): 82.397 and 69.0476 and 68.4524
CDK7 ([1]; Time (Min) 248.996): 81.4954 and 70.068 and 77.0833
CDK7 ([1]; Time (Min) 251.996): 82.3276 and 68.6395 and 82.7381
CDK7 ([1]; Time (Min) 254.996): 80.5243 and 67.551 and 74.1071
CDK7 ([1]; Time (Min) 257.996): 85.2407 and 70.4082 and 62.2024
CDK7 ([1]; Time (Min) 260.996): 83.0212 and 68.0272 and 80.6548
CDK7 ([1]; Time (Min) 263.996): 83.8535 and 68.6395 and 70.6845
CDK7 ([1]; Time (Min) 266.996): 68.0272
CDK7 ([1]; Time (Min) 266.996, listed as RGB-286638): 83.7842 and 91.369
CDK7 ([1]; Time (Min) 269.996): 81.2873 and 68.9116 and 72.9167
CDK7 ([1]; Time (Min) 272.996): 80.8711 and 70.3401 and 74.8512
CDK7 ([1]; Time (Min) 275.996): 78.9985 and 67.0748 and 80.0595
CDK7 ([1]; Time (Min) 278.996): 80.5243 and 67.8231 and 80.6548
CDK7 ([1]; Time (Min) 281.996): 80.1776 and 69.4558 and 75
CDK7 ([1]; Time (Min) 284.996): 78.513 and 68.5034 and 75.2976
CDK7 ([1]; Time (Min) 287.996): 79.8308 and 68.2993 and 76.6369
CDK7 ([1]; Time (Min) 290.996): 80.5243 and 69.932 and 91.2202
CDK7 ([1]; Time (Min) 293.996): 78.9985 and 67.9592 and 82.2917
CDK7 occupancy after 2 h of analysis following compound washout ([1]; live cells, probe 1 at 1 µM): fully dissociated
CDK2 occupancy after compound washout (%) ([2]; Time (Min) 0): 86.242 and 90.073 and 94.3307
CDK2 occupancy after compound washout (%) ([2]; Time (Min) 2.97013): 79.5117 and 80.9002 and 88.1102
CDK2 occupancy after compound washout (%) ([2]; Time (Min) 5.97045): 73.673 and 73.2847 and 82.0472
CDK2 occupancy after compound washout (%) ([2]; Time (Min) 8.97078): 68.5138 and 66.4964 and 75.5906
CDK2 occupancy after compound washout (%) ([2]; Time (Min) 11.9714): 64.0977 and 61.0706 and 70.5249
CDK2 occupancy after compound washout (%) ([2]; Time (Min) 14.9718): 59.9363 and 55.5961 and 65.5381
CDK2 occupancy after compound washout (%) ([2]; Time (Min) 17.9723): 56.1571 and 50.7299 and 61.601
CDK2 occupancy after compound washout (%) ([2]; Time (Min) 20.9723): 52.6752 and 47.2263 and 57.3753
CDK2 occupancy after compound washout (%) ([2]; Time (Min) 23.9731): 49.9788 and 43.4307 and 53.9895
CDK2 occupancy after compound washout (%) ([2]; Time (Min) 26.9737): 47.0913 and 40.219 and 51.2336
CDK2 occupancy after compound washout (%) ([2]; Time (Min) 29.9742): 44.5011 and 36.91 and 47.9003
CDK2 occupancy after compound washout (%) [2, 4]: 42.1444 and 34.1363 and 45.2756
CDK2 occupancy after compound washout (%) ([2]; Time (Min) 35.9749): 39.724 and 31.4599 and 43.3596
CDK2 occupancy after compound washout (%) ([2]; Time (Min) 38.9753): 37.5584 and 29.5864 and 40.3675
CDK2 occupancy after compound washout (%) ([2]; Time (Min) 41.9753): 36.0722 and 27.129 and 39.4488
CDK2 occupancy after compound washout (%) ([2]; Time (Min) 44.9758): 33.3121 and 25.1582 and 36.6667
CDK2 occupancy after compound washout (%) ([2]; Time (Min) 47.9761): 31.6136 and 23.6253 and 35.2756
CDK2 occupancy after compound washout (%) ([2]; Time (Min) 50.9766): 29.9788 and 21.8978 and 32.9134
CDK2 occupancy after compound washout (%) ([2]; Time (Min) 53.9771): 27.983 and 20.1946 and 30.7874
CDK2 occupancy after compound washout (%) ([2]; Time (Min) 56.9772): 27.3885 and 18.0049 and 30.0525
CDK2 occupancy after compound washout (%) ([2]; Time (Min) 59.9777): 25.9023 and 17.2749 and 28.5564
CDK2 occupancy after compound washout (%) ([2]; Time (Min) 62.9781): 24.4161 and 15.8151 and 27.3753
CDK2 occupancy after compound washout (%) ([2]; Time (Min) 65.9785): 22.9299 and 14.3552 and 26.2992
CDK2 occupancy after compound washout (%) ([2]; Time (Min) 68.9792): 21.4437 and 13.6253 and 25.1706
CDK2 occupancy after compound washout (%) ([2]; Time (Min) 71.9792): 20.5945 and 12.1655 and 24.252
CDK2 occupancy after 2 h of analysis following compound washout ([2]; live cells, probe 1 at 1 µM): fully dissociated

CN(C)C/C=C/C(=O)Nc1ccc(C(=O)Nc2cccc(Nc3ncc(Cl)c(-c4c[nH]c5ccccc45)n3)c2)cc1 [THZ1]
mBRET values, 2h [3, 5]: 8.56 mBRET and 5.32 mBRET
mBRET values, 2h [3, 6]: 7.68 mBRET and 4.86 mBRET
mBRET values, 2h [3, 7]: 6.67 mBRET and 4.16 mBRET
mBRET values, 2h [3, 8]: 15 mBRET and 7.79 mBRET
mBRET values, 2h [3, 9]: 16.83 mBRET and 10.6 mBRET
mBRET values, 2h [3, 10]: 18.12 mBRET and 11.5 mBRET
mBRET values, 2h [3, 11]: 20.68 mBRET and 12.8 mBRET
mBRET values, 2h [3, 12]: 20.88 mBRET and 13.4 mBRET
mBRET values, 2h [3, 13]: 20.48 mBRET and 13.4 mBRET
mBRET values, 2h [3, 14]: 19.82 mBRET and 13.5 mBRET
mBRET values, 2h [3, 15]: 20.06 mBRET and 13.5 mBRET
mBRET values, 6h [3, 5]: 7.65 mBRET and 4.87 mBRET
mBRET values, 6h [3, 6]: 7.21 mBRET and 4.56 mBRET
mBRET values, 6h [3, 7]: 6.77 mBRET and 4.18 mBRET
mBRET values, 6h ([3]; LOG10([THZ1]) (LOG10(µM)) -0.13033): 8.08 mBRET and 4.82 mBRET
mBRET values, 6h [3, 8]: 8.54 mBRET and 5.25 mBRET
mBRET values, 6h [3, 9]: 9.55 mBRET and 5.83 mBRET
mBRET values, 6h [3, 10]: 13.84 mBRET and 8.78 mBRET
mBRET values, 6h [3, 11]: 18.55 mBRET and 12 mBRET
mBRET values, 6h [3, 12]: 19.6 mBRET and 13.1 mBRET
mBRET values, 6h [3, 13]: 19.14 mBRET and 12.9 mBRET
mBRET values, 6h [3, 14]: 18.6 mBRET and 13.6 mBRET
mBRET values, 6h [3, 15]: 19.78 mBRET and 13.4 mBRET
